This passage reports inhibition results from patent US3958000A, “Fungicidal 2-arylthio-, 2-alkylthio- and 2-haloalkylthio-1,2,4-oxadiazolidine-3,5-diones” (Chevron Research Company, priority 1975, dated 1976).

What all share (type): cell-based
One test relates to Alternaria solani. Kind of test: Fungal spore control (spore slide-germination) against Alternaria solani. Particulars: Conc. 4 ppm, overnight in moist chamber, read-out: % Control (percent inhibition of germination of fungus spores).
Another test deals with Monolinia fructicola. Kind of test: Fungal spore control (spore slide-germination) against Monolinia fructicola. The note with it: Conc. 10 ppm, overnight in moist chamber, read-out: % Control (percent inhibition of germination of fungus spores).
For a further test, the system named is Botrytis cinerea. Kind of test: Fungal spore control (spore slide-germination) against Botrytis cinerea. Particulars: Conc. 10 ppm, overnight in moist chamber, read-out: % Control (percent inhibition of germination of fungus spores).

For `O=c1on(SC(Cl)(Cl)Cl)c(=O)n1C1CCCCC1` [Compound 1, 2-trichloromethylthio-4-cyclohexyl-1,2,4-oxadiazolidine-3,5-dione], in the test on Alternaria solani, the inhibition – broadly, the share of the control response that was lost under treatment – at 4 ppm was determined as 78%. Besides, the inhibition at 10 ppm with Monolinia fructicola and in the test on Botrytis cinerea was 100% each time.
For `CC(C)n1c(=O)on(SC(Cl)(Cl)Cl)c1=O` [Compound 3], the inhibition at 4 ppm in the test on Alternaria solani was 99%. In addition, the inhibition at 10 ppm in the test on Monolinia fructicola and with Botrytis cinerea was 100% throughout.
